From patent US20130149721A1, “Methods for Inhibiting Amyloid Precursor Protein and Beta-Amyloid Production and Accumulation” (WISCONSIN ALUMNI RESEARCH FOUNDATION, priority 2008, published 2013)

Key:
[1] = system: audiogenic seizures in Fmr-1 KO mice; conditions: intraperitoneal injections; cited from earlier work
[2] = system: FMRP-associated APP mRNA in WT SN; test: FMRP immunoprecipitation and RTqPCR of associated APP mRNA in synaptoneurosomes; assay type: cell-based, mouse
Procedure: SNs were prepared from WT and Fmr-1 KO mouse cortical tissue (Dunkley et al., 1988, Brain Res 441: 59-71; Bagni et al., 2000, J Neuorsci 20: RC76). Briefly, mouse pups aged 14-17 d were killed by carbon dioxide asphyxiation followed by removal of the brain cortices. The cortices were washed in ice-cold gradient medium (GM buffer: 0.25 M sucrose, 5 mM Tris (pH 7.5), and 0.1 mM EDTA), transferred to a glass dounce homogenizer containing ice-cold GM buffer, and gently homogenized with five strokes of the loose pestle followed by five strokes of the tight pestle. The homogenate was spun at 1000 g for 10 min at 4° C. in round-bottom tubes to pellet cellular debris and nuclei. […] The protein concentration of the SNs was determined by Bradford assay and ranged from 200-500 ng/μl. […]
SN lysates were precleared with protein A magnetic beads and immunoprecipitated with 10 μl RNasin, 10 μg 7G1-1 antiFMRP antibody (or in the absence of antibody as a control), and 100 μl packed fresh protein A magnetic beads for 3 h at 4° C. […] The final pellet was suspended in DEPC-treated water, solubilized 10 min at 60° C., and reverse transcribed with Qiagen Omniscript and random nonamer primer (60 min at 37° C., 5 min at 93° C.). cDNA produced in this reaction was diluted 5-fold and analyzed for APP by qPCR as described immediately above. […]

[3] = system: APP levels in WT and Fmr-1 KO SN; test: Western blot of steady-state APP levels in synaptoneurosomes; assay type: cell-based, mouse
Procedure: FIG. 3 is a result from western blot analysis illustrating differential regulation of APP levels in WT and KO SN. Western blots of WT (top panel) and KO (bottom panel) SN treated in the presence or absence of DHPG (at 5, 10 and 20 min of incubation) were probed with anti-APP and anti-β-actin (control) antibodies.
Western blot analysis. Aliquots of SNs were collected at 5, 10, and 20 min after DHPG treatment, quenched with an equal volume of 2×SDS sample buffer (8% SDS, 24% glycerol, 100 mM Tris (pH 6.8), 4% β-mercaptoethanol, 0.02% bromophenol blue, 2% Triton X-100, 2% deoxycholate, 2% NP-40 alternative, and 2% sarkosyl) and boiled for 5 min prior to analysis by 12% SDS-PAGE. The separated proteins were transferred to a 0.45 μm nitrocellulose membrane in Towbin buffer containing 20% methanol with a Criterion Blotter (Bio-Rad, http://www.bio-rad.com; 100 V, 4° C., 75 min). The membranes were blocked in 5% nonfat dry milk and hybridized with anti-rabbit APP antibody (dilution, 1 μg/ml) and anti-mouse β-actin antibody (dilution, 1:20,000) followed by hybridization with anti-rabbit or anti-mouse HRP-conjugated secondary antibodies (dilution, 1:2000). […]
In order to assess changes in steady-state APP levels, rather than new protein synthesis, APP was measured in WT and Fmr-1 KO SN in response to DHPG by western blot analysis (FIG. 3). […]

| SMILES | effect on audiogenic seizures [1] | time to loss of APP mRNA-FMRP complex ([2]; WT SN contacted with DHPG) [min] | difference in FMRP-associated APP mRNA ([2]; WT SN, untreated vs 100 μM DHPG, 60 min) [fold] | increase in total APP levels ([3]; Fmr-1 KO SN, DHPG) | increase in total APP levels ([3]; WT SN, within 5 min of DHPG, n=3) [fold] |
| --- | --- | --- | --- | --- | --- |
| Cc1cccc(C#Cc2ccccc2)n1 [MPEP, 2-methyl-6-(phenylethynyl)pyridine] | reduce |  |  |  |  |
| N[C@@H](C(=O)O)c1cc(O)cc(O)c1 (racemic) [DHPG, (R,S)-3,5-dihydroxyphenylglycine] |  | ≤ 5 | > 60 | completely absent | 1.6 |
